Molecular target: Metabotropic glutamate receptor 2 (Homo sapiens, UniProt Q14416)
Assay: In Vitro Activity Test for mGluR2: Experimental materials: HEK/mGluR2 cell line ([…] transfected HEK cell line), DMEM (FBS) medium, positive control LY487379 (purchased from sigma; CAS: to 352317-17-1)Experimental instrument: FLIPR Tetra real-time fluorescence imaging analysis systemExperimental method: HDB Fluo-8 calcium fluorescence detection methodExperimental principle: HDB Fluo-8 calcium ion fluorescence detection method is a fast, simple and reliable fluorescence detection method of intracellular calcium concentration changes. The Fluo 8-AM fluorescent dye is an acetyl methyl ester derivative of Fluo 8 which can easily penetrate into the cell membrane by culture. The fluorescent dye in the cell will be hydrolyzed by intracellular esterase, the resulting Fluo 8 as a polar molecule, cannot easily pass through the lipid bimolecular membrane, and will be retained in the cell, and combine with calcium (Ca2+) to produce fluoresces.Cells expressing GPCR receptor protein (mGluR2) were first calibrated with a calcium ion sensitive fluorescent probe and then stimulated with the compound. After stimulation, the receptor activates the calcium ion mobilization, and the fluorescent probe captures the calcium ion to induce the fluorescence signal. The signal can be read by a fluoroscopy plate. The fluorescent plate reader contains a sample addition for compound addition, thus enabling the change of the fluorescence value of the compound be read in real time.
Type: cell-based

Chain of Metabotropic glutamate receptor 2 (Q14416 whole entry): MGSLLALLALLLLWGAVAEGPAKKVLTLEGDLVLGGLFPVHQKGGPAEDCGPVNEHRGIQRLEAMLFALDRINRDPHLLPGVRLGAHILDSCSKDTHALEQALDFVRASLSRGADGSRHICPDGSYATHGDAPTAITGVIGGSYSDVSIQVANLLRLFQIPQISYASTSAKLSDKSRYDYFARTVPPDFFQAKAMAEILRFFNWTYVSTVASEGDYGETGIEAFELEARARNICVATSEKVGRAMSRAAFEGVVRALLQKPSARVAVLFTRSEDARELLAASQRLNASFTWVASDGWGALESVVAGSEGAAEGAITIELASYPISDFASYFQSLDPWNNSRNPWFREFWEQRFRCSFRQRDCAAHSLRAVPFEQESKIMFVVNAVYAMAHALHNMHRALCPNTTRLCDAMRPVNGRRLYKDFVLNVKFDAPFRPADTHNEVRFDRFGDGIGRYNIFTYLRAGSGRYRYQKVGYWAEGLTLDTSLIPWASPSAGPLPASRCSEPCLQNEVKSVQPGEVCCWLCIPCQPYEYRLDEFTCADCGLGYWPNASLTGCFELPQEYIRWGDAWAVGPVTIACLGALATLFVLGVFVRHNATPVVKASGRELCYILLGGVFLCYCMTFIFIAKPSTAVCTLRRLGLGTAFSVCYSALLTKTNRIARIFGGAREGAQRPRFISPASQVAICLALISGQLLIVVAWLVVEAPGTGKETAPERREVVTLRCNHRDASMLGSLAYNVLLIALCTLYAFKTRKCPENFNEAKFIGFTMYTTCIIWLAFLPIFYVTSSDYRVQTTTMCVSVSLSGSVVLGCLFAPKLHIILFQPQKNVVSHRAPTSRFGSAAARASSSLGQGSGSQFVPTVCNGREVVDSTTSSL

## COC(=O)c1ccc(-c2ccn3c(CC4CC4)nnc3c2Cl)c(F)c1
  EC50: 910 nM

## Clc1c(-c2ccc3c(c2)OCO3)ccn2c(CC3CC3)nnc12
  EC50: 890 nM

## c1cc2c(cc1-c1ccn3c(CC4CC4)nnc3c1)OCO2
  EC50: 970 nM

Reference: ChEMBL document CHEMBL5728032, “Fluorine-containing triazolopyridine, and manufacturing method, pharmaceutical composition, and application thereof” (2020)
